Tested on: form deprivation myopia (FDM) model
Experiment: Efficacy research in form deprivation myopia (FDM) model
Assay type: in vivo, colored guinea pigs
Conditions: applied locally to eyes
Description: (1) A total of 40 healthy three-week-old colored guinea pigs were randomly selected and randomly divided into 8 groups with 5 guinea pigs in each group. The 8 guinea pig groups includes a first group: a normal control group, a second group: a myopia model-alone group, a third group: a myopia model+0.01% DHEA-based eye drop group, a fourth group: a myopia model+0.1% DHEA-based eye drop group, a fifth group: myopia model+1% DHEA-based eye drop group, a sixth group: a myopia model+2% DHEA-based eye drop group, a seventh group: a myopia model+DHEA-based eye ointment group, and an eighth group: a myopia model+DHEA-based gel group. There were no statistically-significant differences in the baseline diopter and AL of the right eye among the groups.
(2) Establishment of a form deprivation myopia (FDM) model: the right eye was covered and the left eye was normally opened. […]
A) Diopter measurement: the optometry was conducted with a streak retinoscope and lenses of different diopters, and an average of diopters in horizontal and vertical meridians was taken. The optometry was conducted 3 times, and an average was taken and recorded as a result.
B) AL measurement: ALs of both eyes were measured by an A-mode ultrasound instrument. Results of 6 measurements under waveform standards were selected, and an average was taken and recorded as a result, which was accurate to 0.01 mm.

SMILES: C[C@]12CC[C@H](O)CC1=CC[C@@H]1[C@@H]2CC[C@]2(C)C(=O)CC[C@@H]12 [DHEA, 3-β-hydroxyandrost-5-en-17-one]
- Growth of axial length (AL) in animal models: reduce the growth of axial length (AL)
